Here are results for 25 compounds from ChEMBL document CHEMBL1201862, “PubChem BioAssay data set” (2004).

Test systems include DMS-114; DMS-273; HOP-18; KM-20L2; LXFL 529; M19-MEL; RXF 631; XF498; DLD-1.
What all share (assay): NCI anticancer screen, dose series, 48 h

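Where inhibition never reached the appropriate level, the endpoint shown equals the highest concentration tested. Otherwise, values were interpolated linearly from a five-concentration, 48-hour dose response in 96-well plates. GI50 marks 50% less growth.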 Calls of active or inactive are those of the source. Cut-off read from the data, not from the text of the source: active = GI50 up to about 1.1 µM and inactive = higher.

Regarding `CCOc1ccc(/C=C2/C(=O)N=C(N)N=C2N)cc1OCC`, the GI50 in the test with DMS-114, in the test on DMS-273, in the test on HOP-18, in the test on KM-20L2, in the test on LXFL 529 and with M19-MEL was > 100 µM (inactive) in each case. For the same compound, the GI50 in the test on RXF 631 and with XF498 was > 100 µM (inactive) in each case.

Consider `Cc1ccccc1N(CCC#N)C1=NN(C(=O)CC(=O)Nc2ccccc2)C(c2ccccc2)C1` (centres undefined), for which the GI50 in the test with DLD-1, in the test on DMS-273, in the test with HOP-18, with KM-20L2, in the test on LXFL 529 and in the test on M19-MEL was > 100 µM (inactive) in each case. Also, in the test on RXF 631, the GI50 is > 100 µM (inactive).

Consider `CCCCOC(=O)C1C(c2ccc(Cl)cc2)NC(c2ccc(Cl)cc2)C(C(=O)OCCCC)S1(=O)=O` (centres undefined), for which the GI50 in the test on DLD-1 is > 100 µM (inactive); in the test on DMS-114, > 100 µM (inactive); with DMS-273, > 100 µM (inactive); in the test on HOP-18, > 100 µM (inactive); in the test with KM-20L2, > 100 µM (inactive); in the test with LXFL 529, 69.8 µM (inactive). For the same compound, the GI50 in the test on M19-MEL and in the test on XF498 was > 100 µM (inactive) in each case.

In the case of `COc1nc2c(c(O)c(C)c(=O)n2OC2OC(COC(C)=O)C(OC(C)=O)C(OC(C)=O)C2OC(C)=O)c(=O)n1C` (centres undefined), the GI50 with DLD-1, with DMS-114, with DMS-273, in the test on KM-20L2, with LXFL 529 and with M19-MEL was > 100 µM (inactive) throughout. Also, the GI50 in the test with RXF 631 and with XF498 was > 100 µM (inactive) each time.

On to `COc1cc2oc(-c3ccccc3)cc(=O)c2c(O)c1C`, for which the GI50 in the test on DLD-1, with DMS-114, in the test on DMS-273, with KM-20L2, with LXFL 529 and in the test with M19-MEL was > 100 µM (inactive) each time.

Turning to `N=C(N)NCCCCCCC(=O)NC(O)C(=O)NCCCCNCCCN` (centres undefined), the GI50 in the test on DLD-1 is 723 µM (inactive); in the test on DMS-114 it was 69.2 µM (inactive); with DMS-273 it was > 750 µM (inactive); in the test on HOP-18, 710 µM (inactive); in the test on KM-20L2, 600 µM (inactive); with M19-MEL it was 719 µM (inactive). In addition, in the test with XF498, the GI50 was 100 µM (inactive).

For the compound `CCOC1=C2N=C(C(CC)c3ccccc3F)N=C2C(=O)c2ccccc21` (centres undefined), the GI50 with DMS-114, in the test on DMS-273, in the test on KM-20L2, in the test with LXFL 529, with M19-MEL and in the test on RXF 631 was > 100 µM (inactive) throughout.

In the case of `c1ccc2cc(C3NCCc4nc[nH]c43)ccc2c1` (centres undefined), the GI50 with DLD-1 was 62.2 µM (inactive); with DMS-114, 35.6 µM (inactive); in the test with DMS-273 it was 69.2 µM (inactive); in the test on HOP-18, 47 µM (inactive); in the test on KM-20L2, 42.7 µM (inactive); in the test on LXFL 529, 54.2 µM (inactive). Also, in the test with M19-MEL, the GI50 is 29.9 µM (inactive).

As to `N#CCCn1[nH]c(=O)c(Cl)c(Cl)c1=O`, the GI50 is 10.3 µM (inactive) in the test on DLD-1; 14.9 µM (inactive) in the test with DMS-114; 16.9 µM (inactive) with HOP-18; 15.8 µM (inactive) in the test on KM-20L2; 16.9 µM (inactive) with LXFL 529; 12 µM (inactive) in the test with M19-MEL. The GI50 is 19.6 µM (inactive) in the test on RXF 631 and 16.1 µM (inactive) in the test on XF498.

In the case of `O=C(c1ccccc1)c1c(CNCc2ccccc2)n(C(=O)c2ccccc2)c2ccccc12`, the GI50 with DLD-1 was 35.4 µM (inactive); in the test with DMS-114, 21.2 µM (inactive); with DMS-273 it was 47.1 µM (inactive); in the test with KM-20L2 it was 40 µM (inactive); in the test with LXFL 529 it was 30.4 µM (inactive); in the test with M19-MEL, 92.3 µM (inactive). The GI50 in the test on XF498 was > 100 µM (inactive).

As to `Cc1cc2c(C)nn(Cc3ccccc3Cl)c2c(C#N)c1C`, the GI50 in the test on DLD-1, with DMS-273, with HOP-18, with KM-20L2, with LXFL 529 and in the test on M19-MEL was > 100 µM (inactive) throughout. Moreover, the GI50 with RXF 631 and in the test with XF498 was > 100 µM (inactive) in each case.

For `NNC(=O)N/N=C1\C(=O)N(c2ccc(Cl)c(Cl)c2)C(=O)C(=O)C1c1nc2ccccc2s1` (centres undefined), the GI50 in the test with DLD-1, in the test with DMS-114, in the test on DMS-273, with HOP-18, with KM-20L2 and in the test with LXFL 529 was > 100 µM (inactive) throughout. In the test on XF498, the GI50 is > 100 µM (inactive).

As to `C=C(C)[C@@H]1CC[C@]2(C)CC[C@]3(C)[C@H](CC[C@@H]4[C@@]5(C)CC[C@H](O)C(C)(C)[C@@H]5CC[C@]43C)[C@@H]12` [LUPEOL], the GI50 with DLD-1 was > 100 µM (inactive); in the test on DMS-114 it was 65.8 µM (inactive); in the test on DMS-273, > 100 µM (inactive); in the test on KM-20L2, > 100 µM (inactive); with LXFL 529, > 100 µM (inactive); with M19-MEL, > 100 µM (inactive). Besides, the GI50 in the test on XF498 is > 100 µM (inactive).

For the compound `CCN1C[C@]2(C)CC[C@H](OC)C34C1C([C@H](OC(C)=O)[C@@H]32)[C@@]1(OC)C[C@H](OC)[C@H]2C[C@@H]4[C@@H]1[C@H]2O`, the GI50 is > 100 µM (inactive) in the test with DLD-1; 82.4 µM (inactive) in the test on DMS-114; > 100 µM (inactive) with DMS-273; > 100 µM (inactive) in the test with HOP-18; > 100 µM (inactive) in the test with KM-20L2; > 100 µM (inactive) in the test on LXFL 529. The GI50 in the test on M19-MEL and in the test on XF498 was > 100 µM (inactive) in each case.

As to `COc1ccc(N2C(=O)C3CC(c4ccc(C)cc4)c4c([nH]c5ccccc45)C3C2=O)cc1` (centres undefined), the GI50 with DLD-1 was 38.6 µM (inactive); in the test on DMS-114, > 49.7 µM (inactive); with DMS-273, 24.1 µM (inactive); in the test on HOP-18 it was 2.88 µM (inactive); in the test with KM-20L2 it was 10.9 µM (inactive); in the test with LXFL 529, 28.7 µM (inactive). Moreover, the GI50 was > 75.9 µM (inactive) with M19-MEL and 27.2 µM (inactive) with XF498.

As to `NC(=O)N/N=C(/c1nc2ccc([N+](=O)[O-])cc2nc1O)C(O)c1ccco1` (centres undefined), the GI50 in the test on DLD-1 is > 100 µM (inactive); with DMS-114, 28.8 µM (inactive); with DMS-273, 20.5 µM (inactive); in the test with KM-20L2, 10.4 µM (inactive); in the test on LXFL 529, 36.8 µM (inactive); in the test on M19-MEL, 79.8 µM (inactive). Also, the GI50 in the test with RXF 631 is 48.2 µM (inactive); in the test with XF498 it was > 100 µM (inactive).

Regarding `N=C1OC(c2ccc3c(c2)OCO3)C(NNS(=O)(=O)c2ccccc2)=C1O` (centres undefined), the GI50 is > 100 µM (inactive) in the test on DLD-1; > 100 µM (inactive) in the test on DMS-114; > 100 µM (inactive) in the test on DMS-273; > 100 µM (inactive) in the test with HOP-18; > 100 µM (inactive) in the test on KM-20L2; 58.2 µM (inactive) with LXFL 529. For the same compound, the GI50 with M19-MEL was 30.4 µM (inactive).

Consider `C/C=C/C#CC#C/C=C/C=C/C(O)CCO` (centres undefined), for which the GI50 with DLD-1, in the test on DMS-114, with DMS-273, in the test with HOP-18, with KM-20L2 and in the test on LXFL 529 was > 23.1 µM (inactive) throughout. In addition, the GI50 with M19-MEL and in the test with XF498 was > 23.1 µM (inactive) in each case.

`NCC(NC(=O)OCc1ccccc1)C(=O)O` (centres undefined): the GI50 in the test on DLD-1, with DMS-114, in the test with DMS-273, with HOP-18, in the test with KM-20L2 and in the test on LXFL 529 was > 50 µM (inactive) each time. In the test with M19-MEL, the GI50 is > 50 µM (inactive).

Regarding `CN1NC2(CCCCC2)ON=C1c1ccccc1`, the GI50 in the test on DLD-1, in the test on DMS-114, in the test with HOP-18 and in the test on KM-20L2 was > 100 µM (inactive) in each case.

For the compound `CSc1nnc(C(C#N)C#N)nn1`, the GI50 with DLD-1, with DMS-114, with DMS-273, with KM-20L2, in the test with LXFL 529 and in the test on M19-MEL was > 100 µM (inactive) in each case. Besides, the GI50 in the test on RXF 631 and in the test on XF498 was > 100 µM (inactive) in each case.

Turning to `CCCCCCCCCCCCCCCC(=O)Nc1ccn(C2OC(CO)C(O)C2O)c(=O)n1` (centres undefined), the GI50 with DLD-1 was > 54.7 µM (inactive); with DMS-114, 4.89 µM (inactive); in the test on DMS-273 it was 5.66 µM (inactive); in the test on HOP-18, 21.4 µM (inactive); in the test on KM-20L2, 40.3 µM (inactive); with LXFL 529 it was 39.5 µM (inactive). Besides, in the test on M19-MEL, the GI50 is 13.1 µM (inactive).

In the case of `CCc1ccccc1NC(=O)C1=C(C)NC(C)=C(C(=O)Nc2c(CC)cccc2CC)C1c1ccc2c(c1)OCO2` (centres undefined), the GI50 with DLD-1 is 21.9 µM (inactive); in the test with DMS-114, 20.2 µM (inactive); in the test on KM-20L2, 17.6 µM (inactive); in the test on LXFL 529, 17 µM (inactive); with M19-MEL, 22.1 µM (inactive); with XF498 it was 28.4 µM (inactive).

As for `CC(=O)OC1CC2(C)OC(Cc3ccccc32)O1` (centres undefined), the GI50 with DLD-1, with DMS-114, with DMS-273, in the test on HOP-18, with KM-20L2 and in the test with M19-MEL was > 100 µM (inactive) in each case. The GI50 in the test on XF498 is > 100 µM (inactive).

As for `COc1cc2c(c(OC)c1OC)-c1ccc(SC)c(=O)cc1[C@@H](NCc1ccc([N+](=O)[O-])cc1)CC2`, the GI50 in the test with DLD-1 was 0.00402 µM (active); in the test on DMS-114 it was 0.00253 µM (active); in the test on DMS-273, 0.00288 µM (active); in the test with KM-20L2, 0.00158 µM (active); in the test with LXFL 529, 0.00635 µM (active); in the test with M19-MEL, 0.00379 µM (active). In addition, the GI50 in the test with XF498 is 0.00899 µM (active).
